Assay results published in the supplement of paper PMC10307832.

Columns and labels:
Test in all cases: relative viability (nuclei count vs DMSO), 5 days (fraction); higher = more cells survive
IDH-C35 + Phenformin = compound: Cc1ccccc1C(C(=O)NC1CCCCC1)N(C(=O)Cn1ccnc1C)c1cccc(F)c1 [IDH-C35] + N=C(N)NC(=N)NCCc1ccccc1 [Phenformin] (partner 250 µM)
Outline: (§1)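 After 5 days of treatment, lung cancer cells in 1536-well plates were fixed and stained in a single step (final 0.05% Triton X-100, 1% formaldehyde, 1 ug/ml Hoechst) and their nuclei counted on 4× images. Treatment had been applied by pin tool the day after seeding as one drug alone or as a fixed anchor-drug dose with five library-drug doses (not always all listed) in √10 steps. Relative viability is the nuclei count of treated wells divided by that of vehicle wells, and values are medians of duplicate plates.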

[1] = compound: CC1=C(C(=NN1)C)CC2=C(C3=C(S2)N(C(=O)N(C3=O)C)CC(C)C)C(=O)N4C[C@@H](CO4)O + Cc1nc(NC(=O)N2CCC[C@H]2C(N)=O)sc1-c1ccnc(C(C)(C)C(F)(F)F)c1 [Alpelisib] (partner 2 µM)
Outline: as §1

[2] = compound: CC1=C(C(=NN1)C)CC2=C(C3=C(S2)N(C(=O)N(C3=O)C)CC(C)C)C(=O)N4C[C@@H](CO4)O + Cc1nc(Nc2ncc(C(=O)Nc3c(C)cccc3Cl)s2)cc(N2CCN(CCO)CC2)n1 [Dasatinib] (partner 0.075 µM)
Outline: as §1

IDH-C35 + Foretinib = compound: Cc1ccccc1C(C(=O)NC1CCCCC1)N(C(=O)Cn1ccnc1C)c1cccc(F)c1 [IDH-C35] + COc1cc2c(Oc3ccc(NC(=O)C4(C(=O)Nc5ccc(F)cc5)CC4)cc3F)ccnc2cc1OCCCN1CCOCC1 [Foretinib] (partner 0.25 µM)
Outline: as §1

Cell Line	relative viability (IDH-C35 + Phenformin; first compound 0.08 µM)	relative viability (IDH-C35 + Phenformin; first compound 0.253 µM)	relative viability (IDH-C35 + Phenformin; first compound 0.8 µM)	relative viability (IDH-C35 + Phenformin; first compound 2.53 µM)	relative viability (IDH-C35 + Phenformin; first compound 8 µM)	relative viability ([1]; first compound 0.0025 µM)	relative viability ([1]; first compound 0.007906 µM)	relative viability ([1]; first compound 0.025 µM)	relative viability ([1]; first compound 0.07906 µM)	relative viability ([1]; first compound 0.25 µM)	relative viability ([2]; first compound 0.0025 µM)	relative viability ([2]; first compound 0.007906 µM)	relative viability ([2]; first compound 0.025 µM)	relative viability ([2]; first compound 0.07906 µM)	relative viability ([2]; first compound 0.25 µM)	relative viability (IDH-C35 + Foretinib; first compound 0.08 µM)	relative viability (IDH-C35 + Foretinib; first compound 0.253 µM)	relative viability (IDH-C35 + Foretinib; first compound 0.8 µM)	relative viability (IDH-C35 + Foretinib; first compound 2.53 µM)	relative viability (IDH-C35 + Foretinib; first compound 8 µM)
NCI-H2228	0.255	0.374	0.436	0.417	0.405	0.911	0.673	1.01	0.722	0.9	0.507	0.644	0.453	0.521	0.602	0.939	0.814	0.973	0.853	0.667
NCI-H2347	0.421	0.516	0.362	0.474	0.241	1.16	1.01	1.11	0.964	0.964	0.394	0.323	0.299	0.234	0.257	1.19	0.992	0.799	0.955	1.01
NCI-H2405	0.419	0.394	0.41	0.384	0.363	0.735	0.688	–	0.78	0.669	0.216	0.223	–	0.238	0.224	1.04	1.04	1.06	1.14	1.05
NCI-H3122	0.391	0.372	0.4	0.376	0.359	0.813	0.816	0.788	0.783	0.706	0.988	1.03	0.663	0.775	0.889	0.919	0.984	0.915	0.928	0.958
PC-3 [JPC-3]	0.471	0.447	0.521	0.509	0.453	1.02	1.03	1	1.01	1.06	1.06	0.939	0.94	0.908	0.975	1	1.01	1.05	1.11	0.982
PC-14	0.53	0.611	0.642	0.434	0.662	1.05	0.877	0.886	0.974	0.975	0.281	0.261	0.254	0.278	0.269	1.03	0.909	0.978	0.988	0.889
RERF-LC-KJ	0.415	0.443	0.419	0.456	0.403	0.977	0.939	0.92	0.775	0.964	0.874	0.946	0.751	0.855	0.804	0.941	0.853	0.968	0.867	0.888
SK-LU-1	0.604	0.541	0.558	0.628	0.527	0.879	0.565	0.537	0.782	0.582	0.194	0.195	0.192	0.169	0.182	0.833	0.839	0.87	0.878	0.901
SK-MES-1	0.696	0.649	0.6	0.673	0.648	0.964	0.997	1.04	0.878	1.01	0.389	0.367	0.371	0.337	0.314	0.983	0.955	0.897	0.971	0.756
SW 1573	0.456	0.372	0.387	0.359	0.352	0.756	0.699	0.764	0.715	0.917	0.451	0.681	0.402	0.501	0.597	1.18	0.873	0.915	0.933	0.928
